Measured values published in publication PMC3961306, “Comparison of the Cancer Gene Targeting and Biochemical Selectivities of All Targeted Kinase Inhibitors Approved for Clinical Use” (PLoS ONE, 2014).
Read-outs that look alike come from different tables or passages of the source.

Experiments:
[1] = target: panel of more than 300 wild-type and mutant kinases (313 kinase panel) (Homo sapiens, UniProt P09619); test: Kinase profiling in a biochemical assay panel (mobility shift assays and ELISA), %-inhibition at 1 μM; selectivity entropy; conditions: kinase PDGFRβ; 1 μM
[2] = target: panel of more than 300 wild-type and mutant kinases (313 kinase panel) (Homo sapiens, UniProt P15056); test: as above; conditions: kinase BRAF; 1 μM compound
[3] = target: panel of more than 300 wild-type and mutant kinases (313 kinase panel) (Homo sapiens, UniProt P35968); test: as above; conditions: kinase KDR; compound at 1 μM
[4] = target: panel of more than 300 wild-type and mutant kinases (313 kinase panel) (Homo sapiens, UniProt P15056, V600E); test: as above; conditions: kinase BRAF(V600E); 1 μM compound
[5] = target: panel of more than 300 wild-type and mutant kinases (313 kinase panel) (Homo sapiens, UniProt P07947, T348I); test: as above; conditions: kinase YES(T348I); compound at 1 μM
[6] = target: panel of more than 300 wild-type and mutant kinases (313 kinase panel) (Homo sapiens, UniProt Q9UM73, R1275Q); test: as above; conditions: kinase ALK(R1275Q); 1 μM compound
[7] = target: panel of more than 300 wild-type and mutant kinases (313 kinase panel) (Homo sapiens, UniProt P11362, V561M); test: as above; conditions: kinase FGFR1(V561M); compound at 1 μM
[8] = target: panel of more than 300 wild-type and mutant kinases (313 kinase panel) (Homo sapiens, UniProt P00533, L858R/T790M); test: as above; conditions: kinase EGFR(T790M/L858R); compound at 1 μM
[9] = target: panel of more than 300 wild-type and mutant kinases (313 kinase panel) (Homo sapiens, UniProt P22612); test: as above; conditions: kinase PKACγ; 1 μM
[10] = tested on: forty-four human cancer cell lines; test: Cell proliferation assay (ATPlite, 72 hours) in the 44 cell line Oncolines panel; assay type: cell-based; conditions: Homo sapiens
[11] = A204, cell line A-204, read-out: cell panel IC50, A-204
[12] = A-375, cell line A375, read-out: cell panel IC50, A375
[13] = SHP77, cell line SHP-77, read-out: cell panel IC50, SHP-77
[14] = SW-620, cell line SW620, read-out: cell panel IC50, SW620
[15] = U2OS, cell line U-2 OS, read-out: cell panel IC50, U-2 OS
[16] = cell line J82, read-out: cell panel IC50, J82
[17] = cell line PA-1, read-out: cell panel IC50, PA-1
[18] = cell line SJCRH30, read-out: cell panel IC50, SJCRH30
[19] = cell line SR, read-out: cell panel IC50, SR
[20] = U-87 MG cell line, ATPlite, 72 hours, read-out: IC50 in cell proliferation assay (table S5 cellpanel data)

Structure (SMILES): CO[C@H]1C[C@@H]2CC[C@@H](C)[C@@](O)(O2)C(=O)C(=O)N2CCCC[C@H]2C(=O)O[C@H]([C@H](C)C[C@@H]2CC[C@@H](OCCO)[C@H](OC)C2)CC(=O)[C@H](C)/C=C(\C)[C@@H](O)[C@@H](OC)C(=O)[C@H](C)C[C@H](C)/C=C/C=C/C=C/1C [everolimus]
- %-inhibition of PDGFRβ [1]: -3.52%
- %-inhibition, BRAF [2]: -6.54%
- %-inhibition of KDR [3]: -6.38%
- %-inhibition, BRAF(V600E) [4]: 2%
- %-inhibition of YES(T348I) [5]: -0.414%
- %-inhibition, ALK(R1275Q) [6]: -4.29%
- %-inhibition of FGFR1(V561M) [7]: -12%
- %-inhibition of EGFR(T790M/L858R) [8]: -5%
- %-inhibition of PKACγ [9]: -7.41%
- IC50 ([10]; 769-P, cell line 769-P, read-out: cell panel IC50, 769-P): 373 nM
- IC50 ([10]; 786-0, cell line 786-0, read-out: cell panel IC50, 786-0): 204 nM
- IC50 ([10]; A 172, read-out: cell panel IC50, A-172, cell line A-172): 50 nM
- IC50 [10, 11]: 11900 nM
- IC50 ([10]; A498, read-out: cell panel IC50, A-498, cell line A-498): 1240 nM
- IC50 ([10]; A549, read-out: cell panel IC50, A-549, cell line A-549): 732 nM
- IC50 [10, 12]: 18700 nM
- IC50 ([10]; A-427, read-out: cell panel IC50, A-427, cell line A-427): 94 nM
- IC50 ([10]; ACHN, cell line ACHN, read-out: cell panel IC50, ACHN): 15100 nM
- IC50 ([10]; AN3-CA, cell line AN3 CA, read-out: cell panel IC50, AN3 CA): 104 nM
- IC50 ([10]; AU565, read-out: cell panel IC50, AU-565, cell line AU-565): 27300 nM
- IC50 ([10]; BT-20, cell line BT-20, read-out: cell panel IC50, BT-20): 7 nM
- IC50 ([10]; BT-549, read-out: cell panel IC50, BT-549, cell line BT-549): 58 nM
- IC50 ([10]; BXPC-3, cell line BxPC-3, read-out: cell panel IC50, BxPC-3): > 31600 nM
- IC50 ([10]; C-33-A, cell line C-33 A, read-out: cell panel IC50, C-33 A): 20 nM
- IC50 ([10]; CAL-27, cell line CAL 27, read-out: cell panel IC50, CAL 27): 2690 nM
- IC50 ([10]; CCRF-CEM, cell line CCRF-CEM, read-out: cell panel IC50, CCRF-CEM): 1420 nM
- IC50 ([10]; DLD-1, cell line DLD-1, read-out: cell panel IC50, DLD-1): 495 nM
- IC50 ([10]; FaDu, cell line FaDu, read-out: cell panel IC50, FaDu): 1170 nM
- IC50 ([10]; HCT-15, cell line HCT-15, read-out: cell panel IC50, HCT-15): 292 nM
- IC50 ([10]; HCT-116, read-out: cell panel IC50, HCT-116, cell line HCT-116): 19100 nM
- IC50 ([10]; Hs-578T, cell line Hs 578T, read-out: cell panel IC50, Hs 578T): 49 nM
- IC50 ([10]; Jurkat E6.1, cell line Jurkat E6.1, read-out: cell panel IC50, Jurkat E6.1): 63 nM
- IC50 ([10]; K562, read-out: cell panel IC50, K-562, cell line K-562): > 31600 nM
- IC50 ([10]; LS174T, read-out: cell panel IC50, LS 174T, cell line LS 174T): > 31600 nM
- IC50 ([10]; LoVo, cell line LoVo, read-out: cell panel IC50, LoVo): > 31600 nM
- IC50 ([10]; MG-63, cell line MG-63, read-out: cell panel IC50, MG-63): 453 nM
- IC50 ([10]; MOLT-4, cell line MOLT-4, read-out: cell panel IC50, MOLT-4): 153 nM
- IC50 ([10]; MeWo, cell line MeWo, read-out: cell panel IC50, MeWo): > 31600 nM
- IC50 ([10]; NCI-H82, cell line NCI-H82, read-out: cell panel IC50, NCI-H82): 4780 nM
- IC50 ([10]; NCI-H460, cell line NCI-H460, read-out: cell panel IC50, NCI-H460): 3970 nM
- IC50 ([10]; OVCAR-3, cell line OVCAR-3, read-out: cell panel IC50, OVCAR-3): 471 nM
- IC50 ([10]; RPMI-7951, cell line RPMI-7951, read-out: cell panel IC50, RPMI-7951): 1.2 nM
- IC50 [10, 13]: > 31600 nM
- IC50 ([10]; SK-N-AS, cell line SK-N-AS, read-out: cell panel IC50, SK-N-AS): 299 nM
- IC50 ([10]; SW48, cell line SW48, read-out: cell panel IC50, SW48): 18800 nM
- IC50 ([10]; SW480, cell line SW480, read-out: cell panel IC50, SW480): 14800 nM
- IC50 [10, 14]: 16700 nM
- IC50 [10, 15]: 4250 nM
- IC50 [10, 16]: 433 nM
- IC50 [10, 17]: 3350 nM
- IC50 [10, 18]: 28400 nM
- IC50 [10, 19]: 109 nM
- IC50 [10, 20]: 652 nM

Structure (SMILES): CO[C@H]1C[C@@H]2CC[C@@H](C)[C@@](O)(O2)C(=O)C(=O)N2CCCC[C@H]2C(=O)O[C@H]([C@H](C)C[C@@H]2CC[C@@H](OC(=O)C(C)(CO)CO)[C@H](OC)C2)CC(=O)[C@H](C)/C=C(\C)[C@@H](O)[C@@H](OC)C(=O)[C@H](C)C[C@H](C)/C=C/C=C/C=C/1C [temsirolimus]
- %-inhibition of PDGFRβ [1]: -2.27%
- %-inhibition, BRAF [2]: -3.36%
- %-inhibition of KDR [3]: -7%
- %-inhibition, BRAF(V600E) [4]: -0.864%
- %-inhibition of YES(T348I) [5]: -0.177%
- %-inhibition, ALK(R1275Q) [6]: -1.39%
- %-inhibition of FGFR1(V561M) [7]: -9%
- %-inhibition of EGFR(T790M/L858R) [8]: -2.75%
- %-inhibition of PKACγ [9]: -6%
- IC50 ([10]; A 172, read-out: cell panel IC50, A-172): 10 nM
- IC50 [10, 11]: 2470 nM
- IC50 ([10]; A498, read-out: cell panel IC50, A-498): 1520 nM
- IC50 ([10]; A549, read-out: cell panel IC50, A-549): 746 nM
- IC50 [10, 12]: > 3160 nM
- IC50 ([10]; A-427, read-out: cell panel IC50, A-427): 96 nM
- IC50 ([10]; AU565, read-out: cell panel IC50, AU-565): 63 nM
- IC50 ([10]; BT-549, read-out: cell panel IC50, BT-549): 17 nM
- IC50 ([10]; HCT-116, read-out: cell panel IC50, HCT-116): 252 nM
- IC50 ([10]; K562, read-out: cell panel IC50, K-562): > 3160 nM
- IC50 ([10]; LS174T, read-out: cell panel IC50, LS 174T): 88 nM
- IC50 [10, 13]: > 3160 nM
- IC50 [10, 14]: > 3160 nM
- IC50 [10, 15]: 41 nM
- IC50 [10, 16]: 26 nM
- IC50 [10, 17]: 1320 nM
- IC50 [10, 18]: > 3160 nM
- IC50 [10, 19]: 8 nM
- IC50 [10, 20]: 454 nM
- IC50 ([10]; cell line 769-P, read-out: cell panel IC50, 769-P): 9 nM
- IC50 ([10]; cell line 786-0, read-out: cell panel IC50, 786-0): 428 nM
- IC50 ([10]; cell line ACHN, read-out: cell panel IC50, ACHN): > 3160 nM
- IC50 ([10]; cell line AN3 CA, read-out: cell panel IC50, AN3 CA): 792 nM
- IC50 ([10]; cell line BT-20, read-out: cell panel IC50, BT-20): 33 nM
- IC50 ([10]; cell line BxPC-3, read-out: cell panel IC50, BxPC-3): > 3160 nM
- IC50 ([10]; cell line C-33 A, read-out: cell panel IC50, C-33 A): 34 nM
- IC50 ([10]; cell line CAL 27, read-out: cell panel IC50, CAL 27): > 3160 nM
- IC50 ([10]; cell line CCRF-CEM, read-out: cell panel IC50, CCRF-CEM): 15 nM
- IC50 ([10]; cell line DLD-1, read-out: cell panel IC50, DLD-1): 127 nM
- IC50 ([10]; cell line FaDu, read-out: cell panel IC50, FaDu): > 3160 nM
- IC50 ([10]; cell line HCT-15, read-out: cell panel IC50, HCT-15): 2470 nM
- IC50 ([10]; cell line Hs 578T, read-out: cell panel IC50, Hs 578T): 100 nM
- IC50 ([10]; cell line Jurkat E6.1, read-out: cell panel IC50, Jurkat E6.1): 122 nM
- IC50 ([10]; cell line LoVo, read-out: cell panel IC50, LoVo): > 3160 nM
- IC50 ([10]; cell line MG-63, read-out: cell panel IC50, MG-63): 2220 nM
- IC50 ([10]; cell line MOLT-4, read-out: cell panel IC50, MOLT-4): 21 nM
- IC50 ([10]; cell line MeWo, read-out: cell panel IC50, MeWo): 19 nM
- IC50 ([10]; cell line NCI-H82, read-out: cell panel IC50, NCI-H82): > 3160 nM
- IC50 ([10]; cell line NCI-H460, read-out: cell panel IC50, NCI-H460): 47 nM
- IC50 ([10]; cell line OVCAR-3, read-out: cell panel IC50, OVCAR-3): > 3160 nM
- IC50 ([10]; cell line RPMI-7951, read-out: cell panel IC50, RPMI-7951): 1.2 nM
- IC50 ([10]; cell line SK-N-AS, read-out: cell panel IC50, SK-N-AS): 238 nM
- IC50 ([10]; cell line SW48, read-out: cell panel IC50, SW48): > 3160 nM
- IC50 ([10]; cell line SW480, read-out: cell panel IC50, SW480): 18 nM
